{
  "source": "patent US20210002725A1",
  "about": "“METHODS FOR THE DIAGNOSIS OF METABOLIC DISORDERS USING EPIMETABOLIC SHIFTERS, MULTIDIMENSIONAL INTRACELLULAR MOLECULES, OR ENVIRONMENTAL INFLUENCES” (Berg LLC, priority 2009, published 2021)",
  "key": {"[1]": {"tested_on": "Bcl2", "assay": "Bcl2 level after administration of CoQ-10 in the presence of VEGF", "type": "cell-based", "from_the_text": "The term “Multidimensional Intracellular Molecule (MIM)”, is an isolated version or synthetically produced version of an endogenous molecule that is naturally produced by the body and/or is present in at least one cell of a human. A MIM is characterized by one or more, two or more, three or more, or all of the following functions. MIMs are capable of entering a cell, and the entry into the cell includes complete or partial entry into the cell, as long as the biologically active portion of the molecule wholly enters the cell. MIMs are capable of inducing a signal transduction and/or gene expression mechanism within a cell. MIMs are multidimensional in that the molecules have both a therapeutic and a carrier, e.g., drug delivery, effect. MIMs also are multidimensional in that the molecules act one way in a disease state and a different way in a normal state. […] Preferably, MIMs selectively act in cells of a disease state, and have substantially no effect in (matching) cells of a normal state. Preferably, MIMs selectively renders cells of a disease state closer in phenotype, metabolic state, genotype, mRNA/protein expression level, etc. to (matching) cells of a normal state."}, "[2]": {"tested_on": "Pyruvate Kinase M2 (PKM2)", "assay": "Western blot of Pyruvate Kinase M2 levels in cells treated with Coenzyme Q10", "type": "cell-based, human", "description": "The samples were processed and run on a 4-12% Bis-Tris Novex NuPAGE gel as described above. The gels were run, transferred and stained essentially as described above.\nThe lactate dehydrogenase blots were stripped by incubating for 30 minutes with methanol, followed by two 10 minute washes with TBS-T, then 30 minutes of incubation with Stripping buffer at 50 deg C., and followed by two washes with 100 ml or more of TBS-T for 30′ each. The 2 blots were scanned in laser scanner to check for complete stripping. The blots were activated with methanol for 5 seconds, washed with water for 5 minutes, and TBST for 15 minutes. The blots were blocked for 1 hour with 5% blocking reagent in TBS-T at room temperature and then washed 3 times with TBS-T (1×-15′; 2×5′ each) and probed with the rabbit polyclonal antibody for Pyruvate Kinase M2 in 5% BSA (NOVUS BIOLOGICALS catalog #H00005315-D01P) at 1:500 dilution overnight at 4 deg C with shaking. After the overnight incubation with primary antibody for Pyruvate Kinase M2, the membranes were washed 3 times with TBS-T (1×-15′; 2×5′ each) and probed with the secondary antibody (antirabbit; 1:10,000 dilution) for 1 h on the orbital tilting shaker at room temperature. After 1 h of incubation with secondary antibodies, the blots were washed 3 times with TBS-T (1×-15′; 2×5′ each) and then incubated with ECF reagent for 5 minutes and then each blot scanned with 5100 Fuji Laser scanner at 25 uM resolution, 16 bit, green laser, at 400V and at 500 V.\nThe HASMC samples were processed and the gels were run, transferred, stained and scanned essentially as described above.\nThe above blots were stripped by incubating for 30 minutes with methanol, followed by two 10 minute washes with TBS-T, then 30 minutes of incubation with Stripping buffer at 50 deg C., and followed by two washes with 100 ml or more of TBS-T for 30′ each. The blots were scanned in laser scanner to check for complete stripping. The blots were activated with methanol for 5 seconds, washed with water for 5 minutes, and TBST for 15 minutes. The blots were blocked for 1 hour with 5% blocking reagent in TBS-T at room temperature and then washed 3 times with TBS-T (1×-15′; 2×5′ each) and probed with the primary antibody for PKM2, SDHB or SDHC in 5% BSA in TBS-T by incubation overnight at 4 deg C. with gentle shaking. The primary antibody for SDHC (ABNOVA H00006391-M02; antimouse) was at 1:500 dilution. The primary antibody for SDHB was from Abcam ab4714-200; antimouse; at 1:1000 dilution. The primary antibody for Pyruvate Kinase M2 (PKM2) was from Novus Biologicals H00005315-DOIP; antirabbit; at 1:500 dilution. After incubation with primary antibodies, the membranes were washed 3 times with TBS-T (1×-15′; 2×5′ each) and probed with the secondary antibody (SDHB & C antimouse; and PKM2 antirabbit; 1:10,000 dilution) for 1 hon the orbital tilting shaker at room temperature. After 1 h of incubation, the blots were washed 3 times with TBS-T (1×-15′; 2×5′ each) and incubated with ECF reagent for 5 minutes and then each blot scanned with 5100 Fuji Laser scanner at 25 uM resolution, 16 bit, green laser, at 400V and at 500 V."}, "[3]": {"tested_on": "variety of cell types", "assay": "Western blot analysis (Bcl-xL, Vimentin, oxidative phosphorylation complexes, mitochondrial membrane integrity proteins)", "type": "cell-based", "conditions": "50 or 100 μM Q10", "description": "Approximately 50 μg of protein were assayed per sample by immunoblotting. All treatments were run in triplicate with controls. […] The primary antibodies were incubated overnight at 4 degrees C. in a 5% BSA and TBST solution. Secondary antibodies were incubated for one hour at 4 degrees. All antibodies were purchased from Cell Signaling Technology. Antibodies were used at a ratio of 1:1000, with the exception of βActin at a ratio of 1:5000. Blots were developed and results were quantified using the NIH Java based densitometer analysis software Image J. All blots were also probed for and normalized to their respective βActin expression.\nThe first experiment processed and evaluated by Western blot and 2-D gel electrophoresis was carried out on the skin cancer cell line SKMEL-28.\nA variety of cell types were evaluated by Western blot analysis against an antibody for Bcl-xL (FIG. 14), an antibody for Vimentin (FIG. 15), a series of antibodies for mitochondrial oxidative phosphorylation function (FIGS. 16-21) and against a series of antibodies related to mitochondrial membrane integrity (FIGS. 22-27)."}},
  "data": [
    {"smiles": "COC1=C(OC)C(=O)C(C/C=C(\\C)CC/C=C(\\C)CC/C=C(\\C)CC/C=C(\\C)CC/C=C(\\C)CC/C=C(\\C)CC/C=C(\\C)CC/C=C(\\C)CC/C=C(\\C)CCC=C(C)C)=C(C)C1=O", "note": "[Q10, Coenzyme Q10]", "values": [
      {"measurement": "level of Bcl2", "setting": "[1]; melanoma cell, in the presence of VEGF", "result": "decreased level of Bcl2"},
      {"measurement": "levels of Bcl2", "setting": "[1]; normal fibroblast, co-administration with VEGF", "result": "no effect"},
      {"measurement": "PKM2 Upper Band Normalized Intensity", "setting": "[2]; HASMC, 5 g, 48 h, 50 μM", "result": 811},
      {"measurement": "PKM2 Upper Band Normalized Intensity", "setting": "[2]; HASMC, 5 g, 48 h, 100 μM", "result": 611},
      {"measurement": "PKM2 Upper Band Normalized Intensity", "setting": "[2]; HASMC, 22 G, 24 h, 50 μM", "result": 477},
      {"measurement": "PKM2 Upper Band Normalized Intensity", "setting": "[2]; HASMC, 22 G, 24 h, 100 μM", "result": 701},
      {"measurement": "PKM2 Upper Band Normalized Intensity", "setting": "[2]; HASMC, 22 G, 48 h, 50 μM", "result": 595},
      {"measurement": "PKM2 Upper Band Normalized Intensity", "setting": "[2]; HASMC, 22 G, 48 h, 100 μM", "result": 496},
      {"measurement": "PKM2 Upper Band Normalized Volume", "setting": "[2]; HepG2, 5 g, 24 h, 50 μM", "result": 29269},
      {"measurement": "PKM2 Upper Band Normalized Volume", "setting": "[2]; HepG2, 5 g, 24 h, 100 μM", "result": 18307},
      {"measurement": "PKM2 Upper Band Normalized Intensity", "setting": "[2]; HepG2, 5 g, 48 h, 50 μM", "result": 303},
      {"measurement": "PKM2 Upper Band Normalized Intensity", "setting": "[2]; HepG2, 5 g, 48 h, 100 μM", "result": 354},
      {"measurement": "PKM2 Upper Band Normalized Volume", "setting": "[2]; HepG2, 22 G, 24 h, 50 μM", "result": 22294},
      {"measurement": "PKM2 Upper Band Normalized Volume", "setting": "[2]; HepG2, 22 G, 24 h, 100 μM", "result": 19560},
      {"measurement": "PKM2 Upper Band Normalized Intensity", "setting": "[2]; HepG2, 22 G, 48 h, 50 μM", "result": 562},
      {"measurement": "PKM2 Upper Band Normalized Intensity", "setting": "[2]; HepG2, 22 G, 48 h, 100 μM", "result": 601},
      {"measurement": "levels of examined proteins (Western blot)", "setting": "[3]", "result": "several of the examined proteins were upregulated or downregulated"}
    ]}
  ]
}
